Here are results for 20 molecules from publication PMC9891166, “Derivatives of 4-methyl-1,2,3-benzoxathiazine 2,2-dioxide as selective inhibitors of human carbonic anhydrases IX and XII over the cytosolic isoforms I and II” (Journal of Enzyme Inhibition and Medicinal Chemistry, 2023).

Holding throughout (experiment): stopped-flow CO2 hydration assay
Holding throughout (assay type): biochemical

The target in one experiment is T1, hCA I (Homo sapiens, UniProt P00915).
T1 construct: gene CA1; recombinant, obtained in-house as reported earlier; cytosolic
T1 sequence (P00915 2-261): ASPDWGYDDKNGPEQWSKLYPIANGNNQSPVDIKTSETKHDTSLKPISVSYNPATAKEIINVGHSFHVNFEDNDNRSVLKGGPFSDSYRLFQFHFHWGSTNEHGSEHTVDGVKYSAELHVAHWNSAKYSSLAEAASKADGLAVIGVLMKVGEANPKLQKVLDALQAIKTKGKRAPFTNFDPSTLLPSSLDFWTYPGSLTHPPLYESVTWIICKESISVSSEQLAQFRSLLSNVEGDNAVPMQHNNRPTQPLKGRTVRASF
The settings on record: read-out: KI (nM)^a,b / hCA I. The source says:
stopped-flow CO2 hydration assay on hCA I

For experiment [1], the target named is T2, hCA II (Homo sapiens, UniProt P00918).
T2 construct: gene CA2; recombinant, obtained in-house as reported earlier; cytosolic
Particulars: read-out: KI (nM)^a,b / hCA II. An excerpt: stopped-flow CO2 hydration assay on hCA II

For experiment [2], the target named is T2, hCA II. The settings on record: read-out: KI (nM)^a,b / hCA I.

Where two headings read alike, the source gives them in different places.

As to `CC1=NS(=O)(=O)Oc2ccc(Cl)cc21` [2d, 6-Chloro-4-methyl-1,2,3-benzoxathiazine 2,2-dioxide], the Ki on hCA I stood at 45700 nM; at hCA II [1] it was 634 nM.

As for `COc1ccc2c(c1)OS(=O)(=O)N=C2C` [2g, 7-Methoxy-4-methyl-1,2,3-benzoxathiazine 2,2-dioxide], the Ki at hCA I came out at 24900 nM; on hCA II [1], 559 nM.

As to `CCOC(=O)c1ccc(-c2ccc3c(c2)OS(=O)(=O)N=C3C)cc1` [5j, Ethyl 4–(4-methyl-2,2-dioxido-1,2,3-benzoxathiazin-7-yl)benzoate], the Ki is more than 100000 nM at hCA I and 6780 nM on hCA II [1].

As to `CC1=NS(=O)(=O)Oc2cc(-c3ccc(Cl)c(Cl)c3)ccc21` [5i, 7–(3,4-Dichlorophenyl)-4-methyl-1,2,3-benzoxathiazine 2,2-dioxide], the results for the Ki at hCA I and at hCA II [1] were more than 100000 nM and 10000 nM, respectively.

With `CC1=NS(=O)(=O)Oc2cc(F)ccc21` [2h, 7-Fluoro-4-methyl-1,2,3-benzoxathiazine 2,2-dioxide], the Ki at hCA I came out at 10500 nM; at hCA II [1] it was 284 nM.

In the case of `COc1ccc(-c2ccc3c(c2)OS(=O)(=O)N=C3C)cc1` [5h, 7–(4-Methoxyphenyl)-4-methyl-1,2,3-benzoxathiazine 2,2-dioxide], the Ki is more than 100000 nM on hCA I and 3170 nM on hCA II [1].

Turning to `CC1=NS(=O)(=O)Oc2cc(-c3ccccc3)ccc21` [5f, 4-Methyl-7-phenyl-1,2,3-benzoxathiazine 2,2-dioxide], the Ki is more than 100000 nM on hCA I and 2360 nM on hCA II [1].

On to `COc1ccc(-c2ccc3c(c2)C(C)=NS(=O)(=O)O3)cc1` [5c, 6–(4-Methoxyphenyl)-4-methyl-1,2,3-benzoxathiazine 2,2-dioxide], for which the Ki turned out to be 70500 nM at hCA I and 7120 nM on hCA II [1].

Turning to `CC1=NS(=O)(=O)Oc2ccc(-c3ccc(F)cc3)cc21` [5b, 6–(4-Fluorophenyl)-4-methyl-1,2,3-benzoxathiazine 2,2-dioxide], the Ki at hCA I stood at 24500 nM; at hCA II [1], 1530 nM.

Take `CC1=NS(=O)(=O)Oc2cc(Br)ccc21` [2j, 7-Bromo-4-methyl-1,2,3-benzoxathiazine 2,2-dioxide]: the Ki is more than 100000 nM on hCA I and 11500 nM at hCA II [1].

As to `CC1=NS(=O)(=O)Oc2ccc(-c3ccccc3)cc21` [5a, 4-Methyl-6-phenyl-1,2,3-benzoxathiazine 2,2-dioxide], the Ki at hCA I worked out at 60600 nM; on hCA II [1], 936 nM.

For the molecule `CC1=NS(=O)(=O)Oc2cc(-c3ccc(F)cc3)ccc21` [5g, 7–(4-Fluorophenyl)-4-methyl-1,2,3-benzoxathiazine 2,2-dioxide], the figures for the Ki on hCA I and at hCA II [1] were more than 100000 nM and 5370 nM, respectively.

With `CC1=NS(=O)(=O)Oc2ccc(-c3ccc(Cl)c(Cl)c3)cc21` [5d, 6–(3,4-Dichlorophenyl)-4-methyl-1,2,3-benzoxathiazine 2,2-dioxide], the results for the Ki on hCA I and at hCA II [1] were more than 100000 nM and 4530 nM, respectively.

As for `CC1=NS(=O)(=O)Oc2cc(Cl)ccc21` [2i, 7-Chloro-4-methyl-1,2,3-benzoxathiazine 2,2-dioxide], the figures for the Ki at hCA I and on hCA II [1] were 82100 nM and 1660 nM, respectively.

Take `CC1=NS(=O)(=O)Oc2cc(C)ccc21` [2f, 4,7-Dimethyl-1,2,3-benzoxathiazine 2,2-dioxide]: the Ki turned out to be 33200 nM on hCA I and 788 nM on hCA II [1].

For `CCOC(=O)c1ccc(-c2ccc3c(c2)C(C)=NS(=O)(=O)O3)cc1` [5e, Ethyl 4–(4-methyl-2,2-dioxido-1,2,3-benzoxathiazin-6-yl)benzoate], the Ki at hCA I came to 19600 nM; on hCA II [1] it was 8250 nM.

As to `CC1=NS(=O)(=O)Oc2ccc(Br)cc21` [2e, 6-Bromo-4-methyl-1,2,3-benzoxathiazine 2,2-dioxide], the Ki at hCA I was more than 100000 nM; on hCA II [1], 5570 nM.

On to `CC1=NS(=O)(=O)Oc2ccc(C)cc21` [2b, 4,6-Dimethyl-1,2,3-benzoxathiazine 2,2-dioxide], for which the Ki at hCA I stood at 21000 nM; on hCA II [1], 457 nM.

As for `CC1=NS(=O)(=O)Oc2ccc(F)cc21` [2c, 6-Fluoro-4-methyl-1,2,3-benzoxathiazine 2,2-dioxide], the Ki at hCA I is 12400 nM; on hCA II [1], 229 nM.

`COc1cccc2c1C(C)=NS(=O)(=O)O2` [2a, 5-Methoxy-4-methyl-1,2,3-benzoxathiazine 2,2-dioxide]: the Ki on hCA I and on hCA II [2] was more than 100000 nM throughout.
